We go through 1 sequence from patent US20220409510A1, “Polypeptides And Methods For Improving Skin Conditions” (Interk Peptide Therapeutics Limited, priority 2018, published 2022).

Test [1] has as its system MM1418-C1 lightly pigmented melanoma cells. Kind of test: Melanin content of melanoma cells after UVB radiation. It counts as cell-based. Conditions: 10 μM for 24 hours prior to 2 kJ/m2 UVB; measured 24 hours later; vs untreated UVB cells; FIG. 20. How it is done: The ability of the polypeptide RSKAKNPLYRRRRRRRRR to alter melanin production was examined.
In brief, MM1418-C1 lightly pigmented melanoma cells were grown in 24 well culture plates and treated with 10 μM RSKAKNPLYRRRRRRRRR (“IK-3”) for 24 hours prior to being exposed to 2 kJ/m2 UVB radiation. Controls (not treated with RSKAKNPLYRRRRRRRRR) labelled “Con” and “UVB”, respectively, were exposed to either 0 or 2 kJ/m2 UVB radiation. Cell groups were returned to the incubator for 24 hours and then the levels of melanin and protein in the cells were measured spectrophotometrically. In each experiment triplicate samples were measured. Data shown in FIG. 19 indicate the average values±SEM (μg melanin/mg cell protein) exposed to 0 or 2 kJ/m2 UVB which had been pre-treated with 0 or 10 μM of RSKAKNPLYRRRRRRRRR 24 hours prior to being exposed to UVB radiation. The t-test (2-tailed) was used to determine statistical significance, *p<0.05, ***p<0.001.

The test system of test [2] is CREB-S133. Kind of test: CREB phosphorylation in primary keratinocytes after solar simulated UV-irradiation (western blot). The settings on record: 0.1, 1 and 5 μM added immediately after ssUV, FIG. 3A. It counts as cell-based. On the procedure:
The influence of the polypeptide IK34720 (SEQ ID NO: 3) on CREB phosphorylation was assessed using the following protocol.
Keratinocytes were harvested and cultured as previously described (Gupta et al., J Invest Dermatol, 2007, 127(3):707-215). Keratinocytes, (passages 1-5) from 3 independent donors were used in the experiments illustrated in FIG. 3.
Positive control treatment (denoted “D” in FIG. 3) was prepared by solubilizing Calcitriol (1,25-dihydroxyvitamin D3 (1,25(OH)2D3)—Cayman Chemical, Mich., USA) in 100% spectroscopic ethanol (Merck, Darmstadt, Germany) and the final concentration was determined by spectroscopy (NanoDrop 2000, Thermo Fisher Scientific, Mass., USA). The polypeptide IK34720 (SEQ ID NO: 3) was solubilised in phosphate buffered saline (PBS) to a concentration of 1 mM at pH 7.2. A vehicle (denoted as “V” in FIG. 3) constituting 0.1% (v/v) spectroscopic ethanol and 0.1% (v/v) PBS was prepared for use as a negative control.
Cultured cells were irradiated by solar simulated UV-irradiation (ssUV) using an Oriel 1000W xenon-arc lamp (Stratford, Conn., USA). Irradiation was administered at an energy level of 400 mJ/cm^2 for UVB and 3600 mJ/cm^2 for UVA (total 4000 mJ/cm^2), measured by an OL754 radiometer (Optronics Laboratories Inc., Orlando, Fla.). This dosage equates to approximately 4 min irradiation of the sun at 12 noon in October in Sydney, Australia. […]

For test [3], the system named is MMP1. In words: MMP1 expression in human skin explants after UV-irradiation (immunohistochemistry). It counts as cell-based. On the procedure:
The effect of the polypeptide IK34720 (SEQ ID NO: 3) on MMP-1 activity in human skin was evaluated using the following protocol.
FIGS. 17 and 18 illustrate the effect of the polypeptide IK34720 (SEQ ID NO: 3) on MMP1 expression, in accordance with the following protocol.
Human skin (2× human explant tissues) removed at elective surgery was cleaned, dissected and cut into pieces of approx. 5mm×5mm. Each piece was placed in a well of a 96 well plate, with individual plates prepared to assess the effects 3 hrs post treatment. Skin was subjected to UV-radiation from solar-simulated UV source for 1.5 h (UVR), or non-irradiation (SHAM), and treated immediately after with a vehicle control, Calcitriol (1 nM) or the polypeptide IK34720 (SEQ ID NO: 3) at concentrations of 50 μM, 250 μM or 500 uM. In FIG. 17, IK50, IK250 and IK500 as μM concentrations refers to 15 μg, 75 μg and 150 μg of IK34720 per 120 μL culture medium/explant, respectively.
Samples harvested at 3 hrs were fixed, sectioned, immunohistochemically stained for MMP1 and quantified for MMP1 expression, by expressing epidermal area stained for MMP1 as a function of total epidermal area examined.

Test [4] relates to wound (skin punch, ID 12 mm). Kind of test: Murine wound model, percentage closure of the wound. The settings on record: topical 10 ug per mouse daily for 10 consecutive days; Day 5 to Day 11; vs negative control (PBS). Format: in vivo, ICR mice. The text has this: FIGS. 1 and 2 illustrate the effect of polypeptides IK34720 (SEQ ID NO: 3—RSKAKNPLYRRRRRRRRR) (FIG. 1) and the dextro-reverso sequence IK236770 (SEQ ID NO: 4—rrrrrrrrrylpnkaksr) (FIG. 2), on wound healing over 10 days in a murine wound model in accordance with the following protocol.
Three groups of 8 male ICR mice with a mean weight of 22 g (±2 g) were used in the present study. The animals were housed in individual cages during the study. Under isoflurane gas anaesthesia, the shoulder and back region of each animal was shaved and a sharp punch (ID 12 mm) was used to induce a wound by removing the skin, including panniculus carnosus and adherent tissues on Day 1.
Following induction of the wound the polypeptides IK34720 and IK236770 were topically administered to the site of the wound at a dosage of 10 μg per animal. […] An additional group which comprised the administration of Phosphate buffered Saline (PBS) at pH 7.4 was used as a negative control.
The wound healing was analysed on Days 5, 7, 9 and 11 by tracing the periphery of the wound onto clear plastic sheets with the wound area calculated by an Image analyzer ProPlus (Media Cybernetics, Version 4.5.0.29. The percentage closure of the wound (%) was calculated. Percentage closure of the wound was determined on 5, 7, 9 and 11. ANOVA and Dunnett's test were applied to test significant significance between the treated groups (peptide and positive control groups) and the negative control group at each time point of measurement. Differences were considered statistically significant at P<0.05, and are indicated by *.

For “RSKAKNPLYRRRRRRRRR [IK34720, 18-residue polypeptide: … with a C-terminal polyarginine region of 8 arginines]”, the “melanin content of cells” value in test [1] is “significantly decreased melanin content”. For the same sequence, in test [2], the “UV-induced phosphorylation of CREB S-133” value is given as “inhibits UV-induced phosphorylation of serine at position 133 of CREB”. In addition, the “percentage of MMP1 positive cells” value in test [3] (500 μM, 3 hrs, FIG. 18) was “statistically significantly reduced”. The “cells staining for MMP-1” value in test [3] (3 hrs post irradiation/treatment, Calcitriol 1 nM, IK34720 50, 250 or 500 uM, FIG. 17) was “fewer stained cells”. For the same sequence, the wound closure percentage result in test [4] was “statistically significant increase (P<0.05) in wound closure percentage”.
